# Tested on: platelets in fresh anticoagulated human blood
# Test: impedance-based micro platelet function test with microfabricated 3D electrodes in a microfluidic channel
# Format: cell-based
# Conditions: 100 μM ADP; human blood with Calcium Chloride and 10 μM PPACK; flow rate 25 μL/min; six frequencies 20 Hz to 2 MHz; logged for 2000 s; FIG. 16
# Description: Although not shown explicitly, electrodes of different heights (125 μm, 250 μm), diameters (100 μm, 250 μm, 500 μm), and gaps in-between electrodes (500 μm, 1000 μm) were fabricated using the same process. Pairs of 3D electrodes where each electrode comprises a number of electrically connected metal-coated cylindrical cores arranged in a grid were also fabricated. […] Wires soldered to the patterned metal pads on the substrates were used to connect the 3D electrodes to an Agilent E4980A LCR meter. FIG. 16 show a set 1600 of experimental data using electrodes fabricated according to the process discussed above. 1 mL of fresh anticoagulated human blood, obtained within 4 hrs of use, was mixed with 65 μL of 100 mg/mL Calcium Chloride and 10 μM of D-Phenylalanyl-prolyl-arginyl chloromethyl ketone (PPACK). […] The impedance of the electrodes was continuously monitored and logged at six different frequencies (20 Hz, 200 Hz, 1 kHz, 15 kHz, 200 kHz, 2 MHz) using a custom MATLAB program running on a computer interfaced to the LCR meter. […] The peak impedance values reached or the areas under the impedance-time curves or other measures from these curves may be analyzed and interpreted as indications of platelet activity in response to the modifying reagent added (e.g. ADP). […]
smiles,measurement,value
"Nc1ncnc2c1ncn2[C@@H]1O[C@H](COP(=O)(O)OP(=O)(O)O)[C@@H](O)[C@H]1O [ADP, adenosine diphosphate]",change in electrode impedance after addition of platelet activation reagent,increase in electrode impedances at all frequencies

# Reference: patent publication US20200055044A1, “METHODS AND SYSTEMS FOR MICRO PLATELET FUNCTION TESTING USING AN INTEGRATED MINIATURIZED PLATELET FUNCTION ANALYZER” (Atantares Corp., priority 2016, published 2020)
